The test system of test [1] is H9c2. Kind of test: Cardioprotective activity against CoCl2-induced cellular hypoxia injury in rat H9c2 cells assessed as increase in cell viability at 30 uM incubated for 24 hrs by CCK-8 assay. Type of test: functional, cell-based.
The test system of test [2] is H9c2. The test is described as follows: Cardioprotective activity against CoCl2-induced cellular hypoxia injury in rat H9c2 cells assessed as reduction in hypoxia-induced apoptosis at 5 to 10 uM incubated for 24 hrs by Hoechst 33258 nuclear staining based analysis. The class given is functional, cell-based. The settings on record: dose 5-10 µM.
The test system of test [3] is Rattus norvegicus. The test is described as follows: Cardioprotective activity in myocardial ischemia Sprague-Dawley rat model assessed as myocardial infarction area at 10 mg/kg, IG treated for 7 days consecutively followed by ISO administration daily for 2 days consecutively by TTC staining based analysis (reference value: 32.65 %). The settings on record: time 9 day. Type of test: functional.

For test [4], the system named is H9c2. The test is described as follows: Cardioprotective activity against CoCl2-induced cellular hypoxia injury in rat H9c2 cells assessed as ROS accumulation at 10 uM incubated for 24 hrs by DCFH-DA probe based analysis (reference value: 28.03 %). The class given is functional.
The target of test [5] is T1, NAD-dependent protein deacetylase sirtuin-1 (Homo sapiens) (UniProt Q96EB6).
T1 sequence (whole entry): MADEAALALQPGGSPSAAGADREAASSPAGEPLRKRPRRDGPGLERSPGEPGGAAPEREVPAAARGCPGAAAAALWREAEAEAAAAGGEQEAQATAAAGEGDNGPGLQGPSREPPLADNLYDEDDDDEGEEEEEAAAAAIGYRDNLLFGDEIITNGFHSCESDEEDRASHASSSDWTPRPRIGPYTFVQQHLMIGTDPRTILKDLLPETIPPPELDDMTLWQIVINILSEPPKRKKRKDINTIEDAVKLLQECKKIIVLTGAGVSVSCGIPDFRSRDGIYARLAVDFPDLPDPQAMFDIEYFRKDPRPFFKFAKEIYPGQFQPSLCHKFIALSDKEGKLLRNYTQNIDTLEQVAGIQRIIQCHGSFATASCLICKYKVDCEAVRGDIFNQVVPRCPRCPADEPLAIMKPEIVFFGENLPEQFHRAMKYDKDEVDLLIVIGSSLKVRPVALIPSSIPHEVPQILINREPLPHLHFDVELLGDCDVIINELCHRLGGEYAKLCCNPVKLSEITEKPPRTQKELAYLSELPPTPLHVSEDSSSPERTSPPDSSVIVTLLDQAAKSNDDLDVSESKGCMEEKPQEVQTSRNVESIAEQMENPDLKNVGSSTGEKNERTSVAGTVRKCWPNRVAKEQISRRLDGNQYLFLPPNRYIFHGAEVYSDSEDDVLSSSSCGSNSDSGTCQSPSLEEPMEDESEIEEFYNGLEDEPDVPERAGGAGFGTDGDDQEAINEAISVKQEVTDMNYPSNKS
The test is described as follows: Activation of SIRT1 (unknown origin) using RHKK-ac-AMC as substrate incubated for 2 hrs by FDL assay relative to control. The following applies: filed as activator.

The test system of test [6] is H9c2. The test is described as follows: Upregulation of SIRT1 mRNA level in CoCl2-induced cellular hypoxia injury in rat H9c2 cells at 5 to 10 uM incubated for 24 hrs by qPCR analysis. The settings on record: dose 5-10 µM. The class given is functional, cell-based.
For test [7], the system named is H9c2. The test is described as follows: Cardioprotective activity against CoCl2-induced cellular hypoxia injury in rat H9c2 cells assessed as cell viability at 10 uM incubated for 24 hrs by CCK-8 assay (reference value: 51.80 +/- 2.58 %). Type of test: functional. The following applies: read-out: Activity.
For test [8], the target named is T2, NAD-dependent protein deacetylase sirtuin-1 (Rattus norvegicus) (UniProt A0A0G2JZ79).
T2 sequence (whole entry): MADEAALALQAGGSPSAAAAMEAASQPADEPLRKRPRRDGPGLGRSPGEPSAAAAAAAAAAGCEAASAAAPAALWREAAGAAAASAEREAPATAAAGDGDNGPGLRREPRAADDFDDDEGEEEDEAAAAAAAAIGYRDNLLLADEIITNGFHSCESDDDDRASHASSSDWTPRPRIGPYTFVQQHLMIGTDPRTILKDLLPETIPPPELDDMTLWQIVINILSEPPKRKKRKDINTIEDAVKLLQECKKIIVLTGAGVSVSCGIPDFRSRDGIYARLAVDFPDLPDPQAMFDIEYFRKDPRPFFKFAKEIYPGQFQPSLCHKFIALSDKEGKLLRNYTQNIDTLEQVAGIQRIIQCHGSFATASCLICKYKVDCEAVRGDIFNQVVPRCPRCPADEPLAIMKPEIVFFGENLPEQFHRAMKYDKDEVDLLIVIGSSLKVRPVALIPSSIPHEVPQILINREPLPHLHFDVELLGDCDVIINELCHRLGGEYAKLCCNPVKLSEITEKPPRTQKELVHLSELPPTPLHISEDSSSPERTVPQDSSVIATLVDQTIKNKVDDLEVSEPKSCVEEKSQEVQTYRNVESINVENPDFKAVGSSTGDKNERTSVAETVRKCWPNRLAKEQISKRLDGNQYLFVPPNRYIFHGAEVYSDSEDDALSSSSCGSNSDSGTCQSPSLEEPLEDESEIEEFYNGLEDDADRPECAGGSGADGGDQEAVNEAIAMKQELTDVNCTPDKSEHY
The test is described as follows: Activation of SIRT1 in CoCl2-induced cellular hypoxia injury in rat H9c2 cells at 5 to 10 uM incubated for 24 hrs by immunofluorescence based analysis. The class given is cell-based. The settings on record: filed as activator, dose 5-10 µM.

In test [9] the target is T2, NAD-dependent protein deacetylase sirtuin-1 (Rattus norvegicus). Kind of test: Activation of SIRT1 in CoCl2-induced cellular hypoxia injury in rat H9c2 cells at 10 uM incubated for 24 hrs in presence of GSSG by immunofluorescence based analysis. Type of test: cell-based.
Test [10] has the same target. The test is described as follows: Activation of SIRT1 in CoCl2-induced cellular hypoxia injury in rat H9c2 cells at 5 to 10 uM incubated for 24 hrs by Western blot analysis. The settings on record: filed as activator, dose 5-10 µM. The class given is cell-based.
Test [11] deals with H9c2. Kind of test: Cardioprotective activity against CoCl2-induced cellular hypoxia injury in rat H9c2 cells assessed as increase in hypoxia-reduced ATP production in mitochondria at 5 to 10 uM incubated for 24 hrs by bioluminescence assay. Type of test: functional, cell-based. The settings on record: dose 5-10 µM.
In test [12] the test system is H9c2. Kind of test: Antioxidant activity against CoCl2-induced cellular hypoxia injury in rat H9c2 cells assessed as decrease in hypoxia-induced LDH release at 10 uM incubated for 24 hrs in presence of GSSG. The class given is functional, cell-based.
Test [13] concerns H9c2. Kind of test: Cardioprotective activity against CoCl2-induced cellular hypoxia injury in rat H9c2 cells assessed as ROS accumulation at 5 uM incubated for 24 hrs by DCFH-DA probe based analysis (reference value: 28.03 %). Type of test: functional.
The test system of test [14] is Rattus norvegicus. The test is described as follows: In vivo activation of SIRT1 in myocardial tissue of myocardial ischemia Sprague-Dawley rat model at 10 to 30 mg/kg, IG treated for 7 days consecutively followed by ISO administration daily for 2 days consecutively by Western blot analysis. The following applies: dose 10-30 mg/kg, time 9.0 day. Type of test: functional, organism-based.

For test [15], the system named is H9c2. The test is described as follows: Cardioprotective activity against CoCl2-induced cellular hypoxia injury in rat H9c2 cells assessed as mitochondrial membrane potential at 10 uM incubated for 24 hrs in presence of GSSG by JC-1 staining based analysis (reference value: 48.08 %). Type of test: functional.
In test [16] the test system is Rattus norvegicus. Kind of test: Cardioprotective activity in myocardial ischemia Sprague-Dawley rat model assessed as improvement in cell volume size at 10 to 30 mg/kg, IG treated for 7 days consecutively followed by ISO administration daily for 2 days consecutively by H and E/Masson staining based analysis. Type of test: functional, organism-based. The following applies: dose 10-30 mg/kg, time 9.0 day.

This is an account of results in ChEMBL document CHEMBL6120941, “Discovery of SIRT1-Activating Hydrogen Sulfide Donating Derivatives for Efficient Resistant of Myocardial Ischemic Injury” (J Med Chem, 2024).

Active and inactive are the calls of the source. The calls are words filed in the database; no cut-off is given here.

On to `C=CCSSCCC(=O)O[C@H]1CC[C@]2(C)[C@H]3C[C@@H](O)[C@@H]4[C@@H]([C@]5(C)CC[C@@H](C(C)(C)O)O5)CC[C@@]4(C)[C@]3(C)CC[C@H]2C1(C)C`, for which the outcome in [1], in test [9] and in [12] was inactive. Further, the outcome in [2], in [6], in [8], in [10], in test [11] and in test [14] was Active. Further, in test [16], the result was Active. For the same compound, the Activity turned out to be 12.68% in test [3]; 4.74% in test [4]; 177% in test [5]; 6.38% in test [13]; 61.96% in [15]. In test [7], the viability at 10 µM was 97.9%.
